Each molecule was assayed on OB/OB MOUSE (assay: Hypoglycemic activity in the ob/ob mouse). Settings: ob/ob mouse; dosed daily for five days; positive control ciglitazone 50 mg/kg; X = H; 7200 min.
Format: in vivo, mouse (C57 BL/6J-ob/ob)
Text: The present compounds of the formula (I) are readily adapted to clinical use as hypoglycemic or hypocholesterolemic agents. The activity required for the former clinical use is defined by the test for hypoglycemic effect in ob/ob mice by the following procedure:
Five to eight week old C57 BL/6J-ob/ob mice (obtained from Jackson Laboratory, Bar Harbor, Me.) were housed five per cage under standard animal care practices. After a one week acclimation period, the animals were weighed and 25 microliters of blood was collected via an ocular bleed prior to any treatment. The blood sample was immediately diluted 1:5 with saline containing 2.5 mg/ml sodium fluoride and 2% sodium heparin, and held on ice for metabolite analysis. […] Bull., vol. […] All drugs were administered in a vehicle consisting of 0.25% w/v methyl cellulose. On day 5, the animals were weighed again and bled (via the ocular route) for blood metabolite levels. The freshly collected samples were centrifuged for two minutes at […] at room temperature. The supernatant was analyzed for glucose, for example, by the ABA 200 Bichromatic Analyzer™*, using the A-gent™^1 glucose UV reagent system*^2 (hexokinase method) using 20, 60 and 100 mg/dl standards. Plasma glucose was then calculated by the equation,
Test compounds are reported in terms of % glucose normalization. For example, a glucose level which is the same as the positive control is reported as 100%.
For Cc1oc(C2CCCCC2)nc1Cc1cc2cc(CC3SC(=O)NC3=O)ccc2o1 (stereo not drawn) [cyclohexyl, X = H, 5-[(2-(2-cyclohexyl-5-methyl-4-oxazolyl)methyl)-5-benzofuranylmethyl]-2,4-thiazolidinedione], the “ED50 (Present Invention, X = H): concentration required to give hypoglycemic activity equivalent to 50% of the positive control” value was 0.05 mg/kg.
For Cc1oc(-c2cccc(F)c2)nc1Cc1cc2cc(CC3SC(=O)NC3=O)ccc2o1 (stereo not drawn) [m-fluorophenyl, X = H, 5-[(2-(2-(3-fluorophenyl)-5-methyl-4-oxazolyl)methyl)-5-benzofuranylmethyl]-2,4-thiazolidinedione], the “ED50 (Present Invention, X = H): concentration required to give hypoglycemic activity equivalent to 50% of the positive control” value was 0.05 mg/kg.
In the case of Cc1cccc(-c2nc(Cc3cc4cc(CC5SC(=O)NC5=O)ccc4o3)c(C)o2)c1 (stereo not drawn) [m-methylphenyl, X = H, 5-[(2-(5-methyl-2-(3-methylphenyl)-4-oxazolyl)-methyl)-5-benzofuranylmethyl]2,4-thiazolidinedione], the “ED50 (Present Invention, X = H): concentration required to give hypoglycemic activity equivalent to 50% of the positive control” value is reported as under 0.005 mg/kg.
Cc1oc(-c2ccccc2F)nc1Cc1cc2cc(CC3SC(=O)NC3=O)ccc2o1 (stereo not drawn) [o-fluorophenyl, X = H, 5-[(2-(2-(2-fluorophenyl)-5-methyl-4-oxazolyl)methyl)-5-benzofuranylmethyl]-2,4-thiazolidinedione] was tested, and the “ED50 (Present Invention, X = H): concentration required to give hypoglycemic activity equivalent to 50% of the positive control” value was 0.01 mg/kg.
For Cc1ccccc1-c1nc(Cc2cc3cc(CC4SC(=O)NC4=O)ccc3o2)c(C)o1 (stereo not drawn) [o-methylphenyl, X = H], the “ED50 (Present Invention, X = H): concentration required to give hypoglycemic activity equivalent to 50% of the positive control” value was 0.05 mg/kg.
With Cc1oc(-c2ccc(Cl)cc2)nc1Cc1cc2cc(CC3SC(=O)NC3=O)ccc2o1 (stereo not drawn) [p-chlorophenyl, X = H, 5-[(2-(2-(4-chlorophenyl)-5-methyl-4-oxazolyl)methyl)-5-benzofuranylmethyl]-2,4thiazolidinedione] the “ED50 (Present Invention, X = H): concentration required to give hypoglycemic activity equivalent to 50% of the positive control” value was 0.05 mg/kg.
In the case of Cc1ccc(-c2nc(Cc3cc4cc(CC5SC(=O)NC5=O)ccc4o3)c(C)o2)cc1 (stereo not drawn) [p-methylphenyl, X = H, 5-[(2-(5-methyl-2-(4-methylphenyl)-4-oxazolyl)-methyl)-5-benzofuranylmethyl]-2,4-thiazolidinedione], the “ED50 (Present Invention, X = H): concentration required to give hypoglycemic activity equivalent to 50% of the positive control” value is reported as 0.05 mg/kg.
For Cc1oc(-c2ccccc2)nc1Cc1cc2cc(CC3SC(=O)NC3=O)ccc2o1 (stereo not drawn) [phenyl, X = H, 5-[(2-(5-Methyl-2-phenyl-4-oxazolyl)methyl)-5-benzofuranylmethyl]-2,4-thiazolidinedione], the “ED50 (Present Invention, X = H): concentration required to give hypoglycemic activity equivalent to 50% of the positive control” value was 0.01 mg/kg.
In the case of Cc1oc(C(C)(C)C)nc1Cc1cc2cc(CC3SC(=O)NC3=O)ccc2o1 (stereo not drawn) [tert-butyl, X = H, 5-[(2-(5-methyl-2-(1,1-dimethylethyl)-4-oxazolyl)-methyl)-5-benzofuranylmethyl]-2,4-thiazolidinedione], the “ED50 (Present Invention, X = H): concentration required to give hypoglycemic activity equivalent to 50% of the positive control” value is reported as 0.10 mg/kg.

Same assay, conditions: ob/ob mouse; dosed daily for five days; positive control ciglitazone 50 mg/kg; X = OH; 7200 min
For Cc1oc(-c2cccc(F)c2)nc1C(O)c1cc2cc(CC3SC(=O)NC3=O)ccc2o1 (stereo not drawn) [m-fluorophenyl, X = OH, reference compound], the “ED50 (EP 299620A, X = OH): concentration required to give hypoglycemic activity equivalent to 50% of the positive control” value was 0.50 mg/kg.
For Cc1cccc(-c2nc(C(O)c3cc4cc(CC5SC(=O)NC5=O)ccc4o3)c(C)o2)c1 (stereo not drawn) [m-methylphenyl, X = OH, reference compound], the “ED50 (EP 299620A, X = OH): concentration required to give hypoglycemic activity equivalent to 50% of the positive control” value was 0.05 to 0.1 mg/kg.
In the case of Cc1oc(-c2ccccc2F)nc1C(O)c1cc2cc(CC3SC(=O)NC3=O)ccc2o1 (stereo not drawn) [o-fluorophenyl, X = OH, reference compound], the “ED50 (EP 299620A, X = OH): concentration required to give hypoglycemic activity equivalent to 50% of the positive control” value is reported as 0.50 mg/kg.
Cc1ccccc1-c1nc(C(O)c2cc3cc(CC4SC(=O)NC4=O)ccc3o2)c(C)o1 (stereo not drawn) [o-methylphenyl, X = OH, reference compound] was tested, and the “ED50 (EP 299620A, X = OH): concentration required to give hypoglycemic activity equivalent to 50% of the positive control” value was over 1 mg/kg.
For Cc1oc(-c2ccccc2)nc1C(O)c1cc2cc(CC3SC(=O)NC3=O)ccc2o1 (stereo not drawn) [phenyl, X = OH, 5-[(2-(5-Methyl-2-phenyl-4-oxazolyl)hydroxymethyl)-5-benzofuranylmethyl]-2,4-thiazolidinedione, reference compound], the “ED50 (EP 299620A, X = OH): concentration required to give hypoglycemic activity equivalent to 50% of the positive control” value was 0.25 mg/kg.

Same assay, conditions: positive control (50 mg/kg) of ciglitazone, daily for five days; vehicle e.g. 250 mg/dl
For CC1(COc2ccc(CC3SC(=O)NC3=O)cc2)CCCCC1 (stereo not drawn) [positive control, ciglitazone, reference compound], the “glucose level of positive control animals” value was about 130 mg/dL.

From patent US5401761A, “Thiazolidinedione hypoglycemic agents” (Pfizer, Inc., priority 1993, dated 1995)
